# Several values for one entry are separate records, joined by “and”; a condition that tells them apart may be missing. Equal entries are not always repeated.
# How the values were obtained:
# Type in all cases: cell-based, corn (Zea mays)
# [1] = system: corn explants; assay: Different cytokinins during bud induction on corn explant transformation (Table 30); conditions: for # Normal Shoot / Total # Shoot: 5,000 explants
# Experimental: An experiment was conducted to evaluate the effect of using different cytokinins during bud induction on corn explant transformation. Corn explants were surface sterilized, purified, rehydrated, inoculated with Agrobacterium, co-cultured, and subjected to the bud induction (without the second extended bud induction step) and regeneration steps as described in Example 1, unless otherwise noted. Glyphosate was used as the selection agent.
# In this experiment, bud induction using four cytokinins, 6-Benzylaminopurine (BAP), Zeatin, thidiazuron (TDZ) and 6-(γ,γ-dimethylallylamino)purine (2iP), was evaluated.
# The shoot frequency was calculated as the number of inoculated explants producing shoots divided by the total number of inoculated explants. The normal shoot frequency was calculated as the number of normal shoots divided by the total number of inoculated explants.
# [2] = system: corn seed excised explants; assay: Corn explant transformation: bud induction with different glyphosate concentrations, 28° C. vs 35° C. first week (Table 2)
# Experimental: To evaluate the effect of elevated temperature during the initial bud induction step on transformation, two temperature treatments were evaluated using glyphosate for selection: 1) bud induction for two weeks at 28° C.; and 2) bud induction for one week at an elevated temperature of 35° C. followed by one week of bud induction at 28° C. The proceeding and subsequent steps for transformation of the corn explants in this experiment were generally performed as described in Example 1.
# Following Agrobacterium inoculation and co-culture, corn explants were transferred to bud induction medium containing MS salts and B5 vitamins supplemented with 2 mg/L TDZ, 1 mg/L 2,4-D and different concentrations of glyphosate and cultured under the temperature conditions described above.
# Total number shoots was calculated as the total number of shoots regenerated from inoculated explants, including both normal and chimeric shoots. The shoot frequency was calculated as the number of inoculated explants producing shoots divided by the total number of inoculated explants. […] The percentage normal shoots was calculated as the number of normal shoots divided by the total number of shoots. Normal shoot frequency was calculated as the number of normal shoots divided by the total number of inoculated explants.
# [3] = system: corn seed excised explants; assay: 2,4-D in co-culture medium on corn explant transformation, 17 experiments (Table 32)
# Experimental: Seventeen independent experiments were conducted to evaluate the effect of 2,4-D in the co-culture medium on corn explant transformation. Corn explants were surface sterilized, purified, rehydrated, inoculated with Agrobacterium, co-cultured, and subjected to bud induction, extended bud induction, and regeneration as described in Example 1, unless otherwise noted. Agrobacterium containing the same Ti plasmid as described in Example 9 was used for all experiments, except for experiments 13-17, in which two different bacterial origins of replication in the Ti-plasmid were evaluated in the presence or absence of 2,4-D in co-culture medium. In these cases, the Ti plasmids carried the same two expression cassettes flanked by T-DNA borders, one comprising the chloroplast-targeted CP4 EPSPS gene under the control of a constitutive promoter and the other comprising the uidA gene under the control of a similar constitutive promoter.
# Table 32 provides a summary of results from treatments with and without 2,4-D in the co-culture medium from the 17 experiments. […] The increase in normal plant frequency ranged from 1.1 to 3.0-fold with an average increase of 1.8-fold.
# (§1) The normal plant frequency was calculated as the number of normal plants divided by the total number of inoculated explants.
# [4] = system: corn seed excised explants; assay: 2,4-D in co-culture and co-culture duration 4 vs 5 days on corn explant transformation (Tables 34, 35); conditions: for # Normal Plants / Normal Plant Frequency (%) / Shoot Frequency (%) / Total # Shoots: 2,4-D (5 mg/L) in co-culture +; for average normal plant frequency (%): 2,4-D present in co-culture (5 mg/L)
# Experimental: In a separate experiment, co-culture durations of 4 days and 5 days were evaluated in combination with the presence or absence of 5 mg/L 2,4-D in the co-culture medium. Corn seed excised explants were surface sterilized, rehydrated and inoculated with an Agrobacterium suspension as described in the preceding experiment. The Agrobacterium contained a chloroplast-targeted CP4 EPSPS gene under the control of a constitutive promoter flanked by T-DNA borders on the Ti plasmid. The inoculated explants were transferred to co-culture plates with or without 5 mg/L 2,4-D and co-cultured for 4 or 5 days prior to bud induction, extended bud induction, and regeneration as described in the preceding experiment.
# Furthermore, co-culture for 4 days produced a higher normal plant frequency compared to co-culture for 5 days.
# The shoot frequency was calculated as the number of inoculated explants producing shoots divided by the total number of inoculated explants. The normal plant frequency was calculated as the number of normal plants divided by the total number of inoculated explants.
# as §1
# [5] = cytokinin 2 mg/L in bud induction
# [6] = cytokinin 10 mg/L in bud induction
# [7] = glyphosate 12.5 μM, 1st week bud induction 28° C.
# [8] = glyphosate 12.5 μM, 1st week bud induction 35° C.
# [9] = glyphosate 25.0 μM, 1st week bud induction 28° C.
# [10] = glyphosate 25.0 μM, 1st week bud induction 35° C.
# [11] = glyphosate 37.5 μM, 1st week bud induction 28° C.
# [12] = glyphosate 37.5 μM, 1st week bud induction 35° C.
# [13] = glyphosate 50.0 μM, 1st week bud induction 28° C.
# [14] = glyphosate 50.0 μM, 1st week bud induction 35° C.
structure (smiles),measurement,setting,value
C/C(=C\CNc1ncnc2[nH]cnc12)CO [Zeatin],Normal Shoot Frequency (%),[1]; [5],0.06%
same,Shoot Frequency (%),[1]; [5],0.20%
same,# Normal Shoot,[1]; [5],3
same,Total # Shoot,[1]; [5],10
"CC(C)=CCNc1ncnc2nc[nH]c12 [2iP, 6-(γ,γ-dimethylallylamino)purine]",Normal Shoot Frequency (%),[1]; [6],0.06%
same,Shoot Frequency (%),[1]; [6],0.14%
same,# Normal Shoot,[1]; [6],3
same,Total # Shoot,[1]; [6],7
"O=C(O)CNCP(=O)(O)O [Glyphosate, glyphosate]",Normal Shoot Frequency (%),[2]; [7],0.36%
same,Normal Shoots (%),[2]; [7],10.23%
same,Shoot Frequency (%),[2]; [7],3.52%
same,Total # Normal Shoots,[2]; [7],9
same,Total # Shoots,[2]; [7],88
same,Normal Shoot Frequency (%),[2]; [8],1.12%
same,Normal Shoots (%),[2]; [8],14.43%
same,Shoot Frequency (%),[2]; [8],7.76%
same,Total # Normal Shoots,[2]; [8],28
same,Total # Shoots,[2]; [8],194
same,Normal Shoot Frequency (%),[2]; [9],0.28%
same,Normal Shoots (%),[2]; [9],31.82%
same,Shoot Frequency (%),[2]; [9],0.88%
same,Total # Normal Shoots,[2]; [9],7
same,Total # Shoots,[2]; [9],22
same,Normal Shoot Frequency (%),[2]; [10],1.84%
same,Normal Shoots (%),[2]; [10],20.91%
same,Shoot Frequency (%),[2]; [10],8.8%
same,Total # Normal Shoots,[2]; [10],46
same,Total # Shoots,[2]; [10],220
same,Normal Shoot Frequency (%),[2]; [11],0.2%
same,Normal Shoots (%),[2]; [11],83.33%
same,Shoot Frequency (%),[2]; [11],0.24%
same,Total # Normal Shoots,[2]; [11],5
same,Total # Shoots,[2]; [11],6
same,Normal Shoot Frequency (%),[2]; [12],1.36%
same,Normal Shoots (%),[2]; [12],22.82%
same,Shoot Frequency (%),[2]; [12],5.96%
same,Total # Normal Shoots,[2]; [12],34
same,Total # Shoots,[2]; [12],149
same,Normal Shoot Frequency (%),[2]; [13],0.16%
same,Normal Shoots (%),[2]; [13],66.67%
same,Shoot Frequency (%),[2]; [13],0.24%
same,Total # Normal Shoots,[2]; [13],4
same,Total # Shoots,[2]; [13],6
same,Normal Shoot Frequency (%),[2]; [14],1.8%
same,Normal Shoots (%),[2]; [14],32.61%
same,Shoot Frequency (%),[2]; [14],5.52%
same,Total # Normal Shoots,[2]; [14],45
same,Total # Shoots,[2]; [14],138
"O=C(O)COc1ccc(Cl)cc1Cl [2,4-D, 2,4-dichlorophenoxyacetic acid]","Normal Plant Frequency (%) With 2,4-D (5 mg/L)","[3]; 2,4-D 5 mg/L in co-culture medium, individual experiments 1-17, normal plants / inoculated explants",1.10% and 1.24% and 1.48% and 0.20% and 0.60% and 2.40% and 1.70% (2×) and 4.20% and 1.50% and 0.40% (2×) and 0.70% and 0.80% and 1.40% and 1.00% and 1.56%
same,"Normal Plant Frequency (%) With 2,4-D (5 mg/L), OVERALL","[3]; 2,4-D 5 mg/L in co-culture medium, overall of 17 experiments",1.32%
same,"average increase in normal plant frequency on removal of 2,4-D from the co-culture medium",[3]; 17 experiments,1.8 fold
same,# Normal Plants,[4]; co-culture duration 4 days,19 and 10
same,Normal Plant Frequency (%),[4]; co-culture duration 4 days,0.8% and 0.9%
same,Shoot Frequency (%),[4]; co-culture duration 4 days,1.5% and 1.1%
same,Total # Shoots,[4]; co-culture duration 4 days,35 and 21
same,# Normal Plants,[4]; co-culture duration 5 days,4
same,Normal Plant Frequency (%),[4]; co-culture duration 5 days,0.5%
same,Shoot Frequency (%),[4]; co-culture duration 5 days,1.1%
same,Total # Shoots,[4]; co-culture duration 5 days,9
same,average normal plant frequency (%),[4]; duration 4 days,0.85%
same,average normal plant frequency (%),[4]; duration 5 days,0.5%
same,average normal plant frequency,"[4]; 2,4-D present in co-culture medium (5 mg/L), 4 and 5 days",0.73%
"O=C(Nc1ccccc1)Nc1cnns1 [TDZ, thidiazuron]",Normal Shoot Frequency (%),[1]; [5],1.70%
same,Shoot Frequency (%),[1]; [5],8.88%
same,# Normal Shoot,[1]; [5],85
same,Total # Shoot,[1]; [5],444
"c1ccc(CNc2ncnc3nc[nH]c23)cc1 [BAP, 6-Benzylaminopurine]",Normal Shoot Frequency (%),[1]; [6],1.56%
same,Shoot Frequency (%),[1]; [6],5.80%
same,# Normal Shoot,[1]; [6],78
same,Total # Shoot,[1]; [6],290
same,bud induction,"[1]; other studies, 1-8 mg/L BAP",bud induction was also observed
